From PubChem BioAssay AID248 (DTP/NCI, 2004)
Several values for one entry are separate records, joined by “and”; a condition that tells them apart may be missing. Equal entries are not always repeated. Inconclusive results and toxic doses are left out. Cut-off read from the data, not from the text of the source: active = T/C of 150% or more; inactive = T/C below 125%.

System: L1210 leukemia ip in BDF1 mice, survival T/C
Assay: NCI In Vivo Anticancer Drug Screen. Data for tumor model L1210 Leukemia (intraperitoneal) in B6D2F1 (BDF1) mice
Conditions: endpoint: mean survival time, higher = longer survival
Method in brief: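 Each compound was tested against a transplantable tumor grown in mice. The endpoint was survival, with treated animals benchmarked against vehicle controls as a simple ratio.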

[1] = dose: 100.0 mg/kg/injection, schedule: Q01DX001 (ip), vehicle: Klucel (hydroxypropylcellulose) (HPC)
[2] = dose: 200.0 mg/kg/injection, schedule: Q01DX001 (ip), vehicle: Klucel (hydroxypropylcellulose) (HPC)
[3] = dose: 400.0 mg/kg/injection, schedule: Q01DX001 (ip), vehicle: Klucel (hydroxypropylcellulose) (HPC)
[4] = dose: 100.0 mg/kg/injection, schedule: Q01DX009 (ip), vehicle: saline with Tween-80
[5] = dose: 200.0 mg/kg/injection, schedule: Q01DX009 (ip), vehicle: saline with Tween-80
[6] = dose: 100.0 mg/kg/injection, schedule: Q04DX003 (ip), vehicle: saline
[7] = dose: 200.0 mg/kg/injection, schedule: Q04DX003 (ip), vehicle: saline
[8] = dose: 400.0 mg/kg/injection, schedule: Q04DX003 (ip), vehicle: saline
[9] = dose: 100.0 mg/kg/injection, schedule: Q04DX003 (ip), vehicle: saline with Tween-80
[10] = dose: 200.0 mg/kg/injection, schedule: Q04DX003 (ip), vehicle: saline with Tween-80
[11] = dose: 400.0 mg/kg/injection, schedule: Q04DX003 (ip), vehicle: saline with Tween-80
[12] = dose: 100.0 mg/kg/injection, schedule: Q01DX001 (ip), vehicle: saline
[13] = dose: 200.0 mg/kg/injection, schedule: Q01DX001 (ip), vehicle: saline
[14] = dose: 400.0 mg/kg/injection, schedule: Q01DX001 (ip), vehicle: saline
[15] = dose: 200.0 mg/kg/injection, schedule: Q01DX009 (ip), vehicle: Klucel (hydroxypropylcellulose) (HPC)
[16] = dose: 100.0 mg/kg/injection, schedule: Q04DX003 (ip), vehicle: Klucel (hydroxypropylcellulose) (HPC)
[17] = dose: 200.0 mg/kg/injection, schedule: Q04DX003 (ip), vehicle: Klucel (hydroxypropylcellulose) (HPC)
[18] = dose: 400.0 mg/kg/injection, schedule: Q04DX003 (ip), vehicle: Klucel (hydroxypropylcellulose) (HPC)
[19] = dose: 100.0 mg/kg/injection, schedule: Q01DX009 (ip), vehicle: Klucel (hydroxypropylcellulose) (HPC)
[20] = dose: 400.0 mg/kg/injection, schedule: Q01DX009 (ip), vehicle: Klucel (hydroxypropylcellulose) (HPC)

Measured: T/C

Cc1nc(N)nc(Cl)c1CCCc1ccccc1
inactive: [1] 97 % of control | [2] 102 % of control | [3] 107 % of control

Cc1ccc(SC(=S)Sc2ccc(C)cc2)cc1
inactive: dose: 50.0 mg/kg/injection, schedule: Q01DX009 (ip), vehicle: saline with Tween-80 91 % of control | [4] 91 % of control | [5] 87 % of control

Nc1cccc2ncccc12
inactive: [6] 104 % of control | [7] 101 % of control | [8] 103 % of control

CCCCCC(CN(C)C)C(/C=C/c1ccccc1Cl)OC(=O)c1ccc([N+](=O)[O-])cc1 (configuration not stated)
inactive: [9] 95 % of control | [10] 92 % of control | [11] 92 % of control

O=S(=O)(CS(=O)(=O)Nc1ccccc1)Nc1ccccc1
inactive: dose: 25.0 mg/kg/injection, schedule: Q04DX003 (ip), vehicle: saline with Tween-80 113 % of control | dose: 50.0 mg/kg/injection, schedule: Q04DX003 (ip), vehicle: saline with Tween-80 116 % of control | [12] 94 % of control | [9] 111 % of control | [13] 94 % of control | [14] 94 % of control

CC(C)N=NCCO
inactive: [1] 101 % of control | [2] 103 % of control | [15] 92 % of control | [3] 99 % of control

O=c1cc(CNC23CC4CC(CC(C4)C2)C3)[nH]c(=O)[nH]1
inactive: [9] 96 % of control | [10] 96 % of control | [11] 89 % of control

O=C1c2sccc2-c2cccc3cccc1c23 (tested in a mixture with another compound)
inactive: [16] 96 % of control | [17] 102 % of control | [18] 106 % of control

C=C1c2c(Cl)cccc2C(CC)(CC)c2cccc(Cl)c21
inactive: [9] 94 % of control | [10] 94 % of control | [11] 92 % of control

O=C(OCCN(CCOC(=O)c1ccc([N+](=O)[O-])cc1)c1c[nH]c(=O)[nH]c1=O)c1ccc([N+](=O)[O-])cc1
inactive: dose: 50.0 mg/kg/injection, schedule: Q01DX001 (ip), vehicle: saline 93 % of control | [12] 93 % of control | [13] 93 % of control | [14] 110 % of control

CC(=O)Nc1cccc2c(C)ccnc12
inactive: dose: 12.5 mg/kg/injection, schedule: Q01DX009 (ip), vehicle: Klucel (hydroxypropylcellulose) (HPC) 99 % of control | dose: 12.5 mg/kg/injection, schedule: Q04DX003 (ip), vehicle: Klucel (hydroxypropylcellulose) (HPC) 94 % of control | dose: 25.0 mg/kg/injection, schedule: Q01DX009 (ip), vehicle: Klucel (hydroxypropylcellulose) (HPC) 97 % of control | dose: 25.0 mg/kg/injection, schedule: Q04DX003 (ip), vehicle: Klucel (hydroxypropylcellulose) (HPC) 98 % of control | dose: 50.0 mg/kg/injection, schedule: Q01DX009 (ip), vehicle: Klucel (hydroxypropylcellulose) (HPC) 87 % of control | dose: 50.0 mg/kg/injection, schedule: Q04DX003 (ip), vehicle: Klucel (hydroxypropylcellulose) (HPC) 95 % of control

COc1ccc(C[C@H]2NC[C@H](O)[C@H]2OC(C)=O)cc1
inactive: dose: 25.0 mg/kg/injection, schedule: Q01DX Z (ip), vehicle: saline 109 % of control | dose: 50.0 mg/kg/injection, schedule: Q01DX Z (ip), vehicle: saline 102 % of control | dose: 100.0 mg/kg/injection, schedule: Q01DX Z (ip), vehicle: saline 109 % of control | dose: 200.0 mg/kg/injection, schedule: Q01DX Z (ip), vehicle: saline 92 % of control and 107 % of control

C/C=C(\C#N)c1ccc(-c2ccccc2)cc1
inactive: dose: 100.0 mg/kg/injection, schedule: Q01DX001 (ip), vehicle: saline with Tween-80 94 % of control | dose: 200.0 mg/kg/injection, schedule: Q01DX001 (ip), vehicle: saline with Tween-80 91 % of control | dose: 400.0 mg/kg/injection, schedule: Q01DX001 (ip), vehicle: saline with Tween-80 98 % of control

CCCCC(=O)OC1CC(C)CCC1C(C)C (configuration not stated)
inactive: [19] 98 % of control | [16] 93 % of control | [15] 106 % of control | [17] 96 % of control | [20] 98 % of control | [18] 93 % of control

O=C(Nc1ccccc1)OC1CCCC1
inactive: [16] 101 % of control | [17] 101 % of control | [18] 96 % of control

CCCCCCCCCCCCCCCCCC(=O)OCC(=O)C(OC(=O)CCCCCCCCCCCCCCCCC)C(OC(=O)CCCCCCCCCCCCCCCCC)C(COC(=O)CCCCCCCCCCCCCCCCC)OC(=O)CCCCCCCCCCCCCCCCC (configuration not stated)
inactive: dose: 100.0 mg/kg/injection, schedule: Q01DX001 (ip), vehicle: other 95 % of control | dose: 200.0 mg/kg/injection, schedule: Q01DX001 (ip), vehicle: other 98 % of control | dose: 400.0 mg/kg/injection, schedule: Q01DX001 (ip), vehicle: other 93 % of control

C=CCNC(=O)c1ccccc1OCC(=O)O
inactive: dose: 100.0 mg/kg/injection, schedule: Q01DX009 (ip), vehicle: gum acacia 93 % of control | dose: 100.0 mg/kg/injection, schedule: Q04DX003 (ip), vehicle: gum acacia 103 % of control | dose: 200.0 mg/kg/injection, schedule: Q01DX009 (ip), vehicle: gum acacia 88 % of control | dose: 200.0 mg/kg/injection, schedule: Q04DX003 (ip), vehicle: gum acacia 100 % of control | dose: 400.0 mg/kg/injection, schedule: Q01DX009 (ip), vehicle: gum acacia 94 % of control | dose: 400.0 mg/kg/injection, schedule: Q04DX003 (ip), vehicle: gum acacia 97 % of control

CCOC(=O)N1Cc2cc3cc(OC)c(OC)cc3nc2C1
inactive: [4] 109 % of control | [9] 106 % of control | [5] 94 % of control | [10] 97 % of control | dose: 400.0 mg/kg/injection, schedule: Q01DX009 (ip), vehicle: saline with Tween-80 108 % of control | [11] 96 % of control

C1CCN(/N=N/c2nn[nH]n2)CC1
inactive: [9] 94 % of control | [10] 91 % of control | [11] 94 % of control

O=P(O)(c1ccccc1)c1ccc(I)cc1
inactive: [12] 100 % of control | [6] 100 % of control | [13] 96 % of control | [7] 96 % of control | [14] 98 % of control | [8] 94 % of control

Cc1ccc(CCO)c(C)c1
inactive: [19] 92 % of control | [16] 92 % of control | [15] 94 % of control | [17] 92 % of control | [20] 90 % of control | [18] 103 % of control

O=[N+]([O-])/C(N=Nc1ccc2ccccc2c1)=N\Nc1ccc2ccccc2c1
inactive: dose: 10.0 mg/kg/injection, schedule: Q01DX001 (ip), vehicle: acetone 98 % of control | dose: 20.0 mg/kg/injection, schedule: Q01DX001 (ip), vehicle: acetone 94 % of control | dose: 40.0 mg/kg/injection, schedule: Q01DX001 (ip), vehicle: acetone 88 % of control | dose: 75.0 mg/kg/injection, schedule: Q01DX001 (ip), vehicle: acetone 89 % of control | dose: 300.0 mg/kg/injection, schedule: Q01DX001 (ip), vehicle: acetone 89 % of control
